These results are taken from patent US20240408130A1, “Combination of Silicon and Magnesium for the Prevention and Treatment of Muscle Cramps” (Bio Minerals NV, priority 2019, published 2024).

Several values for one entry are separate records, joined by “and”; a condition that tells them apart may be missing. Identical values can stand only once. Counter-ions that a name gives are not always drawn.

Data set [1] deals with muscle cramps. The following applies: cited from earlier work.
Data set [2] relates to muscle cramps. Description: Cross-over trial in patients with frequent muscle cramps, cramp frequency recorded daily in a diary (Example 8). It counts as in vivo, human. As to the method:
Female and male patients (age 33 to 86 years) experiencing frequent muscle cramps participated in a cross-over trial. The design of the cross-over trial is as follows: • Period 1:2 weeks orally 400 mg Mg/day (magnesium citrate), • Period 2:2 weeks orally 400 mg Mg/day+10 mg Si/day (magnesium citrate and choline-stabilized orthosilicic acid), • Period 3:2 weeks orally 200 mg Mg/day+5 mg Si/day (magnesium citrate and choline-stabilized orthosilicic acid). • Parameters: patients recorded the frequency of cramps daily in a diary.

In data set [3] the test system is muscle cramps. The data set is described as follows: Case reports of patients with muscle cramps given magnesium alone or Biosil plus Promagnor (Examples 1-7). The data set is classed as in vivo, human. Particulars: patient, recurrent skeletal muscle cramps for 23 years; magnesium salt alone, 450 mg per day. The source says: A patient had recurrent muscle cramps during a period of 23 years. Muscle cramps occurred in skeletal muscles in hands, lower arms and legs, as well as in intercostal muscles. […] Muscle cramps occurred during the day as well as during the night, at a frequency of several cramps per day. As a consequence, the muscle cramps prohibited working as a doctor and further prohibited swimming or any other sport. […] This ineffective result is consistent with the conclusions of Garrison (supra) and Young (supra), that magnesium supplementation is not effective in the treatment of muscle cramps.
The patient thereafter switched to a therapy comprising on a daily basis 10 mg stabilized silicic acid, wherein the silicic acid was in the form of orthosilicic acid and/or oligomers. The stabilizer was choline, which was administered at a daily dose of 200 mg. This combination is sold as Biosil® and is commercially available from Bio Minerals N.V., Destelbergen, Belgium. Use was made of the solid form of Biosil®. Two capsules per day were administered. The magnesium dose was 450 mg, and was in the form of magnesium phosphate, magnesium citrate, or magnesium bicarbonate. It was a dosage form of magnesium commercially supplied as Promagnor™ by Merck Consumer Healthcare nv, Overijse, Belgium. […]

For data set [4], the system named is muscle cramps. Description: Comparative trial in 11 patients with frequent muscle cramps, cramp frequency recorded daily in a diary (Example 9). The data set is classed as in vivo, human. The protocol:
Seven female and 4 male patients (age 27 to 86 years, mean age 56 years) experiencing frequent muscle cramps participated in a comparative trial with the following design: • Period 1: During 1 week 11 patients either • (a) continued with their oral magnesium supplement (6 patients), or • (b) changed from their oral magnesium treatment (2 patients) to an oral magnesium supplement of 180 mg Mg/day (magnesium malate), or • (c) changed from “no magnesium” pretreatment (3 patients) to an oral magnesium supplement of 180 mg Mg/day (magnesium malate). • One patient had taken quinine sulfate prior to period 1. • Period 2: all patients (n=11) took 4 weeks 360 mg Mg/day (magnesium malate)+10 mg Si/day (choline-stabilized orthosilicic acid, ch-OSA®) • Parameters: patients recorded daily the frequency of cramps in a diary.

As for `C=C[C@H]1C[N@@]2CC[C@H]1C[C@H]2[C@H](O)c1ccnc2ccc(OC)cc12` [quinine], in the data set on muscle cramps [1] (reported in the literature (Katzberg 2010; FDA alert 2012)), the side effects result was “common and serious side effects”. In the data set on muscle cramps [1] (systematic reviews and randomized clinical trials (Young 2015), versus placebo), the “effect on idiopathic leg cramps” value is “may reduce the frequency of idiopathic leg cramps at night compared to placebo”.

As to `[Mg]` [magnesium], the “conclusion on frequency of cramps” value with muscle cramps [2] (magnesium alone versus combination with bioavailable silicon supplement, Example 8) was “not effective in reducing the frequency of cramps compared to the combination”. The “effect on recurrent muscle cramps” value in the data set on muscle cramps [3] is “not effective and did not provide any relief or inhibition of the muscle cramps”. For the same compound, the “Number of cramps Mean ± SE” value with muscle cramps [4] (Week 1: own oral magnesium supplement or 180 mg Mg/day (magnesium malate), n=11) was 18.9 ± 7.4^. Further, in the data set on muscle cramps [4] (monotherapy of oral magnesium, Example 9), the “conclusion on relief of muscle cramps” value is “not effective in relieving muscle cramps”. Further, the cramp prophylaxis entry with muscle cramps [1] (Garrison 2012 Cochrane review of seven trials, older adults with skeletal muscle cramps) was “unlikely that magnesium supplementation provides a clinically meaningful cramp prophylaxis to older adults”. In addition, the “effect on leg cramps in pregnancy” value in the data set with muscle cramps [1] (Leal de Araújo 2020, oral magnesium supplementation during pregnancy) was “did not reduce the occurrence and frequency of episodes of leg cramps”.

On to `NCC1(CC(=O)O)CCCCC1` [Gabapentin], for which the “effect on symptom scores” value with muscle cramps [1] (Class I clinical study, versus placebo) was “no difference was found between treatment and placebo with respect to any symptom score”.

Consider magnesium citrate [Mg], for which, in the data set on muscle cramps [2] (A: 2 weeks 400 mg Mg/day orally (magnesium citrate), patients 1-6, one value per patient), the “cramps/day, individual patients” value is 0.43 cramps/day (2×) and 1.07 cramps/day and 0.36 cramps/day and 1.79 cramps/day and 0.5 cramps/day. Also, in the data set on muscle cramps [2] (A: 2 weeks 400 mg Mg/day orally, mean of 6 patients), the “cramps/day, Mean” value came out at 0.76 cramps/day. Further, the “effect on number of cramps” value in the data set with muscle cramps [1] (Class II study, 900 mg) is “could not conclude that there was a significant improvement in the number of cramps”.

Regarding `O=S(=O)([O-])[O-].[Mg+2]` [magnesium sulphate], the “effect on number of cramps, severity, duration, sleep disturbance” value with muscle cramps [1] (Class II study, 300 mg dose, versus placebo) is “not superior to placebo for number of cramps, severity, duration or sleep disturbance”.

Turning to `CCN(CC)CCOC(=O)C(Cc1cccc2ccccc12)CC1CCCO1` (stereo not drawn) [naftidrofuryl oxalate], the “effect on cramps and sleep disturbance” value in the data set with muscle cramps [1] (literature study) is given as “no effect on the mean number of cramps, number of nights with cramps or sleep disturbance”.

On to `COc1ccc([C@@H]2Sc3ccccc3N(CCN(C)C)C(=O)[C@@H]2OC(C)=O)cc1` [diltiazem hydrochloride], for which, in the data set with muscle cramps [1] (Class II study), the “effect on intensity of cramps” value was “no effect on the intensity of cramps”.
